Laboratory results published in article PMC8113725, “Structure–activity relationship of ipglycermide binding to phosphoglycerate mutases” (The Journal of Biological Chemistry, 2021).
Bridge positions count the residues as written; N and C are the ends. Square brackets hold non-standard residues; d marks the D form. Peptide text beside a SMILES is read from it.

The compounds below were run against D. immitis iPGM (Dirofilaria immitis, UniProt F4ZE01) (assay: biochemical). Settings: Di iPGM Ave IC50 (M).

Row | Structure (SMILES) | IC50
1 | CC(C)C[C@H](NC(=O)[C@H](CC(C)C)NC(=O)[C@H](Cc1ccc(O)cc1)NC(=O)[C@@H]1CSCC(=O)N[C@H](Cc2ccc(O)cc2)C(=O)N[C@@H](CC(=O)O)C(=O)N[C@@H](Cc2ccc(O)cc2)C(=O)N2CCC[C@H]2C(=O)NCC(=O)N[C@@H](CC(=O)O)C(=O)N[C@@H](Cc2ccc(O)cc2)C(=O)N1)C(N)=O [Ce-2d Y11L] | 2.43e-07 M
2 | COc1ccc(C[C@@H]2NC(=O)[C@H](CC(=O)O)NC(=O)CNC(=O)[C@@H]3CCCN3C(=O)[C@H](Cc3ccc(O)cc3)NC(=O)[C@H](CC(=O)O)NC(=O)[C@@H](Cc3ccc(O)cc3)NC(=O)CSC[C@@H](C(=O)N[C@@H](Cc3ccc(O)cc3)C(=O)N[C@@H](CC(C)C)C(=O)N[C@@H](Cc3ccc(O)cc3)C(N)=O)NC2=O)cc1 [Ce-2d Y7(4OMe)F] | 6.79e-08 M
3 | CC(C)C[C@H](NC(=O)[C@H](Cc1ccc(O)cc1)NC(=O)[C@@H]1CSCC(=O)N[C@H](Cc2ccc(O)cc2)C(=O)N[C@@H](CC(=O)O)C(=O)N[C@@H](Cc2ccc(O)cc2)C(=O)N2CCC[C@H]2C(=O)NCC(=O)N[C@@H](CC(=O)O)C(=O)N[C@@H](CO)C(=O)N1)C(=O)N[C@@H](Cc1ccc(O)cc1)C(N)=O [Ce-2d Y7S] | 1.78e-07 M
4 | CC(C)C[C@H](NC(=O)[C@H](Cc1ccc(O)cc1)NC(=O)[C@@H]1CSCC(=O)N[C@H](Cc2ccc(O)cc2)C(=O)N[C@@H](C(C)C)C(=O)N[C@@H](Cc2ccc(O)cc2)C(=O)N2CCC[C@H]2C(=O)NCC(=O)N[C@@H](CC(=O)O)C(=O)N[C@@H](Cc2ccc(O)cc2)C(=O)N1)C(=O)N[C@@H](Cc1ccc(O)cc1)C(N)=O [Ce-2d D2V] | 5.77e-07 M
5 | COc1ccc(C[C@H](NC(=O)[C@@H]2CSCC(=O)N[C@H](Cc3ccc(O)cc3)C(=O)N[C@@H](CC(=O)O)C(=O)N[C@@H](Cc3ccc(O)cc3)C(=O)N3CCC[C@H]3C(=O)NCC(=O)N[C@@H](CC(=O)O)C(=O)N[C@@H](Cc3ccc(O)cc3)C(=O)N2)C(=O)N[C@@H](CC(C)C)C(=O)N[C@@H](Cc2ccc(O)cc2)C(N)=O)cc1 [Ce-2d Y9(4OMe)F] | 2.04e-06 M
6 | CC(C)C[C@H](NC(=O)[C@H](Cc1ccc(O)cc1)NC(=O)[C@@H]1CSCC(=O)N[C@H](Cc2ccc(O)cc2)C(=O)N[C@@H](CC(=O)O)C(=O)N[C@@H](Cc2ccc(O)cc2)C(=O)N2CCC[C@H]2C(=O)NCC(=O)N[C@@H](CC(=O)O)C(=O)N[C@@H](Cc2ccc(O)cc2)C(=O)N1)C(=O)N[C@@H](Cc1ccccc1)C(N)=O [Ce-2d Y11F] | 9.89e-08 M
7 | CC(C)C[C@H](NC(=O)[C@H](Cc1ccc(O)cc1)NC(=O)[C@@H]1CSCC(=O)N[C@H](Cc2ccc(O)cc2)C(=O)N[C@@H](CC(=O)O)C(=O)N[C@@H](Cc2ccc(F)cc2)C(=O)N2CCC[C@H]2C(=O)NCC(=O)N[C@@H](CC(=O)O)C(=O)N[C@@H](Cc2ccccc2)C(=O)N1)C(=O)N[C@@H](Cc1ccc(O)cc1)C(=O)NCC(=O)N[C@H](C(=O)N[C@@H](CS)C(N)=O)[C@@H](C)O | 1.41e-09 M
8 | CC(C)C[C@H](NC(=O)[C@H](Cc1ccc(O)cc1)NC(=O)[C@@H]1CSCC(=O)N[C@H](Cc2ccc(O)cc2)C(=O)NCC(=O)N[C@@H](Cc2ccc(O)cc2)C(=O)N2CCC[C@H]2C(=O)NCC(=O)N[C@@H](CC(=O)O)C(=O)N[C@@H](Cc2ccc(O)cc2)C(=O)N1)C(=O)N[C@@H](Cc1ccc(O)cc1)C(N)=O [Ce-2d D2G] | 1.32e-06 M
9 | CC(C)[C@H](NC(=O)[C@H](Cc1ccc(O)cc1)NC(=O)[C@@H]1CSCC(=O)N[C@H](Cc2ccc(O)cc2)C(=O)N[C@@H](CC(=O)O)C(=O)N[C@@H](Cc2ccc(O)cc2)C(=O)N2CCC[C@H]2C(=O)NCC(=O)N[C@@H](CC(=O)O)C(=O)N[C@@H](Cc2ccc(O)cc2)C(=O)N1)C(=O)N[C@@H](Cc1ccc(O)cc1)C(N)=O [Ce-2d L10V] | 1.93e-06 M
10 | CC(C)C[C@H](NC(=O)[C@H](Cc1ccc(O)cc1)NC(=O)[C@@H]1CSCC(=O)N[C@H](Cc2ccc(O)cc2)C(=O)N[C@@H](CC(=O)O)C(=O)N[C@@H](Cc2ccc(O)cc2)C(=O)N2CCC[C@H]2C(=O)N[C@@H](CCC(N)=O)C(=O)N[C@@H](CC(=O)O)C(=O)N[C@@H](Cc2ccc(O)cc2)C(=O)N1)C(=O)N[C@@H](Cc1ccc(O)cc1)C(N)=O [Ce-2d G5Q] | 5.99e-06 M
11 | CC(C)C[C@H](NC(=O)[C@H](Cc1ccccc1)NC(=O)[C@@H]1CSCC(=O)N[C@H](Cc2ccc(O)cc2)C(=O)N[C@@H](CC(=O)O)C(=O)N[C@@H](Cc2ccc(O)cc2)C(=O)N2CCC[C@H]2C(=O)NCC(=O)N[C@@H](CC(=O)O)C(=O)N[C@@H](Cc2ccc(O)cc2)C(=O)N1)C(=O)N[C@@H](Cc1ccc(O)cc1)C(N)=O [Ce-2d Y9F] | 1.43e-05 M
12 | CC(C)C[C@H](NC(=O)[C@H](Cc1ccc(O)cc1)NC(=O)[C@@H]1CSCC(=O)N[C@H](Cc2ccc(F)cc2)C(=O)N[C@@H](CC(=O)O)C(=O)N[C@@H](Cc2ccc(O)cc2)C(=O)N2CCC[C@H]2C(=O)NCC(=O)N[C@@H](CC(=O)O)C(=O)N[C@@H](Cc2ccc(O)cc2)C(=O)N1)C(=O)N[C@@H](Cc1ccc(O)cc1)C(N)=O [Ce-2d Y1D(4F)F] | 3.7e-08 M
13 | CC(C)C[C@H](NC(=O)[C@H](Cc1ccc(O)cc1)NC(=O)[C@@H]1CSCC(=O)N[C@H](Cc2ccc(O)cc2)C(=O)N[C@@H](CC(=O)O)C(=O)N[C@@H](Cc2ccc(F)cc2)C(=O)N2CCC[C@H]2C(=O)NCC(=O)N[C@@H](CC(=O)O)C(=O)N[C@@H](Cc2ccc(O)cc2)C(=O)N1)C(=O)N[C@@H](Cc1ccc(O)cc1)C(N)=O [Ce-2d Y3(4F)F] | 1.48e-07 M
14 | CC(C)C[C@H](NC(=O)[C@H](Cc1ccc(O)cc1)NC(=O)[C@@H]1CSCC(=O)N[C@H](Cc2ccc(O)cc2)C(=O)N[C@@H](CC(=O)O)C(=O)N[C@@H](Cc2ccc(O)cc2)C(=O)N2CCC[C@H]2C(=O)NCC(=O)N[C@@H](CC(=O)O)C(=O)N[C@@H](Cc2ccc(O)cc2)C(=O)N1)C(=O)N[C@@H](Cc1ccc(F)cc1)C(N)=O [Ce-2d Y11(4F)F] | 7.11e-08 M
15 | CC(C)C[C@H](NC(=O)[C@H](Cc1ccc(O)cc1)NC(=O)[C@@H]1CSCC(=O)N[C@H](Cc2ccc(O)cc2)C(=O)N[C@@H](CC(=O)O)C(=O)N[C@@H](Cc2ccccc2)C(=O)N2CCC[C@H]2C(=O)NCC(=O)N[C@@H](CC(=O)O)C(=O)N[C@@H](Cc2ccc(O)cc2)C(=O)N1)C(=O)N[C@@H](Cc1ccc(O)cc1)C(=O)NCC(=O)N[C@H](C(=O)N[C@@H](CS)C(N)=O)[C@@H](C)O [Ce-2 Y3F] ({CH2CO}-[dY]DFPGDYCYLYGTC-NH2; thioether N-8) | 2.42e-09 M
16 | CC(C)C[C@H](NC(=O)[C@H](Cc1ccc(F)cc1)NC(=O)[C@@H]1CSCC(=O)N[C@H](Cc2ccc(O)cc2)C(=O)N[C@@H](CC(=O)O)C(=O)N[C@@H](Cc2ccc(O)cc2)C(=O)N2CCC[C@H]2C(=O)NCC(=O)N[C@@H](CC(=O)O)C(=O)N[C@@H](Cc2ccc(O)cc2)C(=O)N1)C(=O)N[C@@H](Cc1ccc(O)cc1)C(N)=O [Ce-2d Y9(4F)F] | 3.33e-07 M
17 | CC(C)C[C@H](NC(=O)[C@H](Cc1ccc(O)cc1)NC(=O)[C@@H]1CSCC(=O)N[C@H](Cc2ccc(O)cc2)C(=O)N[C@@H](CC(=O)O)C(=O)N[C@@H](Cc2c[nH]c3ccccc23)C(=O)N2CCC[C@H]2C(=O)NCC(=O)N[C@@H](CC(=O)O)C(=O)N[C@@H](Cc2ccc(O)cc2)C(=O)N1)C(=O)N[C@@H](Cc1ccc(O)cc1)C(N)=O [Ce-2d Y3W] | 7.09e-06 M
18 | CC(C)C[C@H](NC(=O)[C@H](Cc1ccc(O)cc1)NC(=O)[C@@H]1CSCC(=O)N[C@@H](Cc2ccc(F)cc2)C(=O)N[C@@H](CC(=O)O)C(=O)N[C@@H](Cc2ccc(O)cc2)C(=O)N2CCC[C@H]2C(=O)NCC(=O)N[C@@H](CC(=O)O)C(=O)N[C@@H](Cc2ccc(O)cc2)C(=O)N1)C(=O)N[C@@H](Cc1ccc(O)cc1)C(N)=O [Ce-2d Y1(4F)F] | 5.35e-08 M
19 | CC(C)C[C@H](NC(=O)[C@H](Cc1ccc(O)cc1)NC(=O)[C@@H]1CSCC(=O)N[C@H](Cc2ccc(O)cc2)C(=O)N[C@@H](CC(=O)O)C(=O)N[C@@H](Cc2ccc(O)cc2)C(=O)N2CCC[C@H]2C(=O)NCC(=O)N[C@@H](CC(N)=O)C(=O)N[C@@H](Cc2ccc(O)cc2)C(=O)N1)C(=O)N[C@@H](Cc1ccc(O)cc1)C(N)=O [Ce-2d D6N] | 6.18e-06 M
20 | CC(C)C[C@H](NC(=O)[C@H](Cc1ccc(O)cc1)NC(=O)[C@@H]1CSCC(=O)N[C@H](Cc2ccc(O)cc2)C(=O)N[C@@H](CCC(=O)O)C(=O)N[C@@H](Cc2ccc(O)cc2)C(=O)N2CCC[C@H]2C(=O)NCC(=O)N[C@@H](CC(=O)O)C(=O)N[C@@H](Cc2ccc(O)cc2)C(=O)N1)C(=O)N[C@@H](Cc1ccc(O)cc1)C(N)=O [Ce-2d D2E] | 9.99e-08 M
21 | CC(C)C[C@H](NC(=O)[C@H](Cc1ccc(O)cc1)NC(=O)[C@@H]1CSCC(=O)N[C@H](Cc2ccc(O)cc2)C(=O)N[C@@H](CC(=O)O)C(=O)N[C@@H](Cc2ccccc2)C(=O)N2CCC[C@H]2C(=O)NCC(=O)N[C@@H](CC(=O)O)C(=O)N[C@@H](Cc2ccc(O)cc2)C(=O)N1)C(=O)N[C@@H](Cc1ccc(O)cc1)C(N)=O [Ce-2d Y3F] | 3.2e-06 M
22 | CC(C)C[C@H](NC(=O)[C@H](Cc1ccc(O)cc1)NC(=O)[C@@H]1CSCC(=O)N[C@H](Cc2ccc(O)cc2)C(=O)N[C@@H](CC(=O)O)C(=O)N[C@@H](Cc2ccc(O)cc2)C(=O)N[C@@H](C)C(=O)NCC(=O)N[C@@H](CC(=O)O)C(=O)N[C@@H](Cc2ccc(O)cc2)C(=O)N1)C(=O)N[C@@H](Cc1ccc(O)cc1)C(N)=O [Ce-2d P4A] | 7.94e-08 M
23 | CC(C)C[C@H](NC(=O)[C@H](Cc1ccc(O)cc1)NC(=O)[C@@H]1CSCC(=O)N[C@H](Cc2ccc(O)cc2)C(=O)N[C@@H](CC(=O)O)C(=O)N[C@@H](Cc2ccc(O)cc2)C(=O)N2CCC[C@H]2C(=O)NCC(=O)N[C@@H](CC(=O)O)C(=O)N[C@@H](Cc2ccc(O)cc2)C(=O)N1)C(=O)N[C@@H](Cc1ccc(O)cc1)C(=O)O [Ce-2d Y11COOH] | 7.75e-07 M
